Measurements as given in BindingDB's records for patent US10301305 (Mutabilis, 2019).

Legend:
Experiment in all cases: in vitro DltA activity assay
[1] = molecular target: T1, D-alanine--D-alanyl carrier protein ligase (Enterococcus faecalis (strain ATCC 700802 / V583), UniProt Q830N0)
T1 sequence (Q830N0 whole entry): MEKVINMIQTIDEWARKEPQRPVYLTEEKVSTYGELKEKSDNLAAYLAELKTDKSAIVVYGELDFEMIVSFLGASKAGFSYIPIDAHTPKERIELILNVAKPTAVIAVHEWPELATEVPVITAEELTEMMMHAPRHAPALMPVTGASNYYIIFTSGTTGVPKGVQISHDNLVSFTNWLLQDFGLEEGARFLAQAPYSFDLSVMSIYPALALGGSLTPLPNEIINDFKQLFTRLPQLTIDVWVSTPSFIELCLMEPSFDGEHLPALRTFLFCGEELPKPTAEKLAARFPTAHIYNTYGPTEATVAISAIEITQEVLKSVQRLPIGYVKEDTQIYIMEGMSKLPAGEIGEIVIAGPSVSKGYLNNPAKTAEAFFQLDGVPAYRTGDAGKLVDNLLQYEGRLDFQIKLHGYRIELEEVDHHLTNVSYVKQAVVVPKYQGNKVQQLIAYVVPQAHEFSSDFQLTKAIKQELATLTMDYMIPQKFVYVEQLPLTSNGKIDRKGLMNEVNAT
Procedure: (§1) The assay buffer AB contained 50 mM Hepes pH8.0, 10 mM MgCl2, 50 mM KCl, 0.012% Triton-X100, 10 mM DTT and 100 nM Myelin-basic protein. The following components were added in a white polystyrene Costar plate up to a final volume of 30 μL: 3 μL DMSO, or inhibitor dissolved in DMSO and 27 μL DltA enzyme in AB. After 30 min of pre-incubation at room temperature, 30 μL of Substrates mix in AB were added in each well to a final volume of 60 μL. This reaction mixture was then composed of DltA (produced in house from S. aureus, E. faecalis, E. faecium and S. agalactiae), 0.5 mM D-Alanine (Sigma), 0.5-5 μM ATP (Sigma) and 0.05 u/ml inorganic pyrophosphatase (Sigma) in assay buffer. After typically 1-2 hours of incubation at room temperature (conversion rate around 30%), 30 μL of the revelation mix were added to a final volume of 90 μL, including the following constituents at the respective final concentrations: 10000 u/ml luciferase (Sigma), 30 μM D-luciferin (Sigma), 100 μM N-acetylcysteamine (Aldrich). Luminescence intensity was immediately measured on a Fluostar Optima (BMG) (excitation 360 nm, emission 520 nm) and converted into inhibition percentages. For IC50 determinations (Inhibitory Concentration 50%) the inhibitor was added at 6 to 10 different concentrations and the related inhibitions were fitted to a classical Langmuir equilibrium model using XLFIT (IDBS).

[2] = molecular target: T2, D-alanine--D-alanyl carrier protein ligase (Enterococcus faecium (strain ATCC BAA-472 / TX0016 / DO), UniProt Q3XZT7)
T2 sequence (Q3XZT7 whole entry): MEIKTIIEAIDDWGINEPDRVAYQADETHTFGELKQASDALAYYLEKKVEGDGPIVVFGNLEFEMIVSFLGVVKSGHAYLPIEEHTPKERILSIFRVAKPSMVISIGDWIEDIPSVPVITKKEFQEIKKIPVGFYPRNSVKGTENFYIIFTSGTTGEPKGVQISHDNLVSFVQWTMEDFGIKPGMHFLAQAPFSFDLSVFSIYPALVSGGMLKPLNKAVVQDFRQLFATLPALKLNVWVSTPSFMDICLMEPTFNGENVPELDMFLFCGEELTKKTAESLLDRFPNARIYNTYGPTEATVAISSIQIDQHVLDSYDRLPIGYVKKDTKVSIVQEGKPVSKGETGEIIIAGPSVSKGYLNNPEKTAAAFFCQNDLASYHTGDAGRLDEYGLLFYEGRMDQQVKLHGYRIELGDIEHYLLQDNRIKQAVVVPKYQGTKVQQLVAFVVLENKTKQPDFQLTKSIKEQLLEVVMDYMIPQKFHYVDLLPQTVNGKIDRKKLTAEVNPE
Procedure: as §1

[3] = molecular target: T3, D-alanine--D-alanyl carrier protein ligase (Staphylococcus aureus, UniProt Q2FZW6)
T3 construct: gene dltA
T3 sequence (Q2FZW6 whole entry, looked up): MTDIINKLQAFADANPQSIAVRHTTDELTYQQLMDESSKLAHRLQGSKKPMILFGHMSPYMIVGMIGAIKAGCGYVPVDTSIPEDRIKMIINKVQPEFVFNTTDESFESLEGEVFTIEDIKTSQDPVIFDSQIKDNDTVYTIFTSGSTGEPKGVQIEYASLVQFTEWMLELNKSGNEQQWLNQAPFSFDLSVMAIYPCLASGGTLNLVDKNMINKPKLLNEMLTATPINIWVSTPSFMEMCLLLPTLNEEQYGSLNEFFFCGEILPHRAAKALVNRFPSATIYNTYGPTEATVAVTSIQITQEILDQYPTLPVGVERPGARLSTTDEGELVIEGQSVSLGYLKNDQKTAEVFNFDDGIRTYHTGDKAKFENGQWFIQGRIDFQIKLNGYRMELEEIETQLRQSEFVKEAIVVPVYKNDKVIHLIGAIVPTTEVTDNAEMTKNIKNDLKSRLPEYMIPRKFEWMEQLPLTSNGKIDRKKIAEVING
Procedure: as §1

Work on `COc1cc(-c2ccc3c(c2)ncn3C2CCCCC2)c2nc[nH]c2c1C(N)=O` [US10301305, Example 88] yielded an IC50 [1] of 26 nM, an IC50 [2] of 79 nM and an IC50 [3] of 33 nM.

Work on `C[C@H]1CCCC(n2cnc3cc(-c4cc(N(C)CCN(C)C)c(C(N)=O)c5[nH]cnc45)ccc32)C1` (mixture of isomers) yielded an IC50 [1] of 4.3 nM and an IC50 [2] of 25 nM.

`CCn1cnc2cc(-c3cc(OCCN(C)C)c(C(N)=O)c4[nH]cnc34)ccc21` [US10301305, Example 198] was tested, and the IC50 [1] was 8.3 nM, the IC50 [2] was 73 nM and the IC50 [3] was 6.8 nM.
